Experimental data from paper PMC2797226 (The Journal of Biological Chemistry, 2009).

Assays:
Kar2p = Kar2p (Saccharomyces cerevisiae, UniProt P16474); test: proteinase K protection, SDS-PAGE; assay type: binding; settings: 2 mM ADP; 5 mM MgCl2; pH 7.4; room temperature
Lhs1p = molecular target: T1, Lhs1p (Saccharomyces cerevisiae, UniProt P36016); test: biochemical
T1 sequence (P36016 21-881): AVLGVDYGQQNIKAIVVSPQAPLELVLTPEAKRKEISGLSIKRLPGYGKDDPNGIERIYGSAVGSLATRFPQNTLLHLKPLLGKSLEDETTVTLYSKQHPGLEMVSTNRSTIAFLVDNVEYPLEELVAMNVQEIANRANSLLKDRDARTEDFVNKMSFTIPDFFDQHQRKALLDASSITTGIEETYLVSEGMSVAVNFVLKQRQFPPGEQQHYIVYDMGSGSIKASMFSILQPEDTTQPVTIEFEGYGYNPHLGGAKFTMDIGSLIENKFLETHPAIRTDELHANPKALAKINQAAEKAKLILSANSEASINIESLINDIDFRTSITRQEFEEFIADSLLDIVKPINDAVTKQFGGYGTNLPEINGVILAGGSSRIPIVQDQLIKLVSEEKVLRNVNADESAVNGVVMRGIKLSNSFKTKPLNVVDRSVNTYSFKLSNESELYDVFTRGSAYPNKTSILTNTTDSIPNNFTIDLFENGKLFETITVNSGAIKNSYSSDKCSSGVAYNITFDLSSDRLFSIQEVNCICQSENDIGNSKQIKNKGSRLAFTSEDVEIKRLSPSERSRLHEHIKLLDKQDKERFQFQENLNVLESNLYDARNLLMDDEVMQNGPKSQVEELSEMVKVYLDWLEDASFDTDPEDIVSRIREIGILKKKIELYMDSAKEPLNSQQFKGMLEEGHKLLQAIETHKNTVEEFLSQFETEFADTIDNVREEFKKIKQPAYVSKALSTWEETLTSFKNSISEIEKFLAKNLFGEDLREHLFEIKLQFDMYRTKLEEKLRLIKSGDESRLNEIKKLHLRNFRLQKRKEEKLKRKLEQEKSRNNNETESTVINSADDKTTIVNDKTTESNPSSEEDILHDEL

Chain of Kar2p (P16474 43-682): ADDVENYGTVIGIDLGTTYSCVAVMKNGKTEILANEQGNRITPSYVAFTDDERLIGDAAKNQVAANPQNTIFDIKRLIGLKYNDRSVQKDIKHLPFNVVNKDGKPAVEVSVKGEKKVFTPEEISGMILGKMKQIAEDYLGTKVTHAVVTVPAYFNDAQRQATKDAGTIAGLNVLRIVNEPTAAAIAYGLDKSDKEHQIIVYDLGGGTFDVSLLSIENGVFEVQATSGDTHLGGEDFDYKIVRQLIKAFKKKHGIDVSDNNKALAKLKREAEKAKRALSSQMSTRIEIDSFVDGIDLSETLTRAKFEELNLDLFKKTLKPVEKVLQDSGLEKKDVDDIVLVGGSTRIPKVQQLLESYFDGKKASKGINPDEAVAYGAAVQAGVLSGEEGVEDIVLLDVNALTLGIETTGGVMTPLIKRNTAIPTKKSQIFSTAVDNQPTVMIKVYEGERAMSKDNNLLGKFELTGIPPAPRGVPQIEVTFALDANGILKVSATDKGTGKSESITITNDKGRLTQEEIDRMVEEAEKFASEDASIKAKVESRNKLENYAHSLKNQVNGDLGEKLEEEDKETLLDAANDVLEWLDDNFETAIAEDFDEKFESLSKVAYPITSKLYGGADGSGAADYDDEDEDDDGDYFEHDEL

Kd (Lhs1p) [µM] | Structure (SMILES) | proteinase K protection, SDS-PAGE (Kar2p)
 | Nc1ncnc2c1ncn2[C@@H]1O[C@H](COP(=O)(O)OP(=O)(O)O)[C@@H](O)[C@H]1O [ADP] | ADP binding protects a ∼44-kDa NBD fragment
13.6 ± 0.5 | Nc1ncnc2c1ncn2[C@@H]1O[C@H](COP(=O)(O)OP(=O)(O)OP(=O)(O)O)[C@@H](O)[C@H]1O [ATP] | 
